Experimental data: article PMC12677652, “Procyanidin B3 and Its Derivatives Alleviate Neuronal Injury by Targeting G3BP1 for Ischemic Stroke Therapy” (Advanced Science, 2025)

Experiments:
OGD/R‐treated HT22 cells = assay: Neuroprotective effect on OGD/R-treated HT22 cells, cell viability by CCK-8; type: cell-based; conditions: for viability at 2 µM / viability at 20 µM: Mus musculus, HT-22, 6 h OGD, 24 h reoxygenation with compound, relative to control cells, mean ± S.D., n = 3
Procedure: HT22 cells were washed with phosphate buffered saline (PBS), then DMEM sugar‐free medium (Gibco, USA) was added and placed in the anaerobic incubator of 5% CO2, 1% O2, and 37 °C for 6 h. PB3 or other compounds were previously dissolved in DMEM/F‐12 with 10% FBS and 1% penicillin/streptomycin. After undergoing OGD for 6 h, the medium was replaced by DMEM/F‐12 with 10% FBS and 1% penicillin/streptomycin containing PB3 or other compounds and kept in a humidified 5% CO2, 37 °C incubator for 24 h.
The CCK‐8 assay kit (Yeasen, China) was used to assess cell viability. All operations were performed following instructions. HT22 cells were seeded into the 96‐well plate (3000 cells per well). The cells were cultured at 37 °C with 5% CO2 in a humidified incubator overnight. After 6 h of OGD, the medium was replaced by DMEM/F‐12 with 10% FBS and 1% penicillin/streptomycin containing PB3 or other compounds and kept in a humidified 5% CO2, 37 °C incubator for 24 h. Then, the cells were washed with PBS, the medium was replaced with DMEM/F‐12 with 10% FBS and 1% penicillin/streptomycin containing 10% CCK‐8 solution, and incubated for 1 h at 37 °C. The absorbance was assessed by a Synergy H1 multi‐mode microplate reader (BioTek, USA) at 450 nm.

G3BP1 = target: T1, G3BP1 (Mus musculus, UniProt P97855); assay: Pull-down analysis with PB3-BP probe in HT22 lysates; type: binding; conditions: 200 µM PB3‐BP, blocked by free PB3
T1 construct: endogenous in cells; host or cells: HT22 cell lysate
T1 sequence (P97855 whole entry): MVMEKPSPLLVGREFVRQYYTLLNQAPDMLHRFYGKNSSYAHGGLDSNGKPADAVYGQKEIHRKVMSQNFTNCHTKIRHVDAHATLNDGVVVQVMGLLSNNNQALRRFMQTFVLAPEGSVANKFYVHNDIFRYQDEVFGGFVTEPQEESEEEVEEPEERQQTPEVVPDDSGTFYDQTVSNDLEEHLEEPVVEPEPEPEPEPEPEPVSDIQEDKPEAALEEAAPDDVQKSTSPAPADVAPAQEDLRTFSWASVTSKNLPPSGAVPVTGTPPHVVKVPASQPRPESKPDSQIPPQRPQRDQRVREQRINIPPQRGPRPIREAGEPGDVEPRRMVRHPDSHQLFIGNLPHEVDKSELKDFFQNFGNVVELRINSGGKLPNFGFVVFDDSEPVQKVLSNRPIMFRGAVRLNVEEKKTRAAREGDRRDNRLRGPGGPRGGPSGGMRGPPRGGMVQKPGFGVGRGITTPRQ
Procedure: HT22 cells were grown to 90% confluency and harvested by trypsin and resuspended in 1 mL PBS (containing protease inhibitors and 0.1% Triton X‐100). The samples were subjected to three freeze–thaw cycles in liquid nitrogen. Each cell lysate was centrifuged (12000 g for 30 min at 4 °C), and the supernatant was collected. The protein concentrations were determined by a BCA protein assay kit (Thermo Scientific, USA). The lysates were adjusted to 2 mg mL^−1 and treated with 200 µM PB3 or DMSO, labeled with 200 µM of PB3‐BP or DMSO, and then put on ice under UV radiation at 365 nm for 1 h. The labeled proteins were precipitated with chloroform‐methanol. Then the precipitations were resuspended with 1.2% SDS/PBS and combined with 300 µM biotin‐PEG3‐azide, 100 µM tris(benzyltriazolylmethyl)amine, 1 mM tris(2‐carboxyethyl)phosphine hydrochloride, and 1 mM CuSO4 for 1 h. After this reaction, the proteomes were extracted again with chloroform‐methanol. The proteins were solubilized with 1.2% SDS/PBS and diluted 5x with PBS. The solubilized proteins were incubated with streptavidin beads (100 µL of slurry, Thermo Scientific, USA) at room temperature for 3 h with rotation. […] The eluted proteins were analyzed by SDS‐polyacrylamide gel electrophoresis and immunoblotted with anti‐G3BP1 antibody.

[1] = type: physicochemical
Procedure: Furthermore, a small‐molecule procyanidin B3‐benzophenone probe (PB3‐BP, 2, Figure 2G) was synthesized based on a non‐protective condensation strategy (Scheme S1, Supporting Information).^[ [29] ^] The stability of compound 2 is poor, and its structure is determined by 2D‐NMR after acetylation (Figure S4, Supporting Information). […] To identify the specific targeting sites of PB3 on G3BP1, the ultraviolet‐crosslinked complex of PB3‐BP/G3BP1 was digested with trypsin and subjected to LC‐MS/MS analysis.^[ [30] ^] […] To evaluate the affinity between the wild type and four mutants (L105A, R107A, Q134A, D135A) ^[ [34] ^] of the G3BP1 NTF2L domain and PB3, molecular dynamics simulations were performed to analyze each complex system based on docking results.^[ [35] ^]

pull-down of G3BP1 (G3BP1)	stability [1]	SMILES	viability at 2 µM (OGD/R‐treated HT22 cells) [%]	viability at 20 µM (OGD/R‐treated HT22 cells) [%]	neuroprotective activity (OGD/R‐treated HT22 cells; 100 µM, OGD/R‐treated HT22 cells)
		CCCc1c(O)cc(O)c2c1O[C@H](c1ccc(O)c(O)c1)[C@@H](O)[C@@H]2c1c(O)cc(O)c2c1O[C@H](c1ccc(O)c(O)c1)[C@@H](O)C2 [Compound 6d, 8‐Propyl‐(+)‐Catechin‐(4α,8)‐(+)‐Catechin]	62.1 ± 3.73	78.8 ± 1.43	
		CCc1c(O)cc(O)c2c1O[C@H](c1ccc(O)c(O)c1)[C@@H](O)[C@@H]2c1c(O)cc(O)c2c1O[C@H](c1ccc(O)c(O)c1)[C@@H](O)C2 [Compound 6b, 8‐Ethyl‐(+)‐Catechin‐(4α,8)‐(+)‐Catechin]	62 ± 9.21	73.6 ± 4.78	
		COc1cc([C@H]2Oc3cc(O)cc(O)c3[C@@H](c3c(O)cc(O)c4c3O[C@H](c3ccc(O)c(O)c3)[C@@H](O)C4)[C@@H]2O)ccc1O [Compound 13a, 3′‐O‐Methyl‐(+)‐Catechin‐(4α,8)‐(+)‐Catechin]	59.6 ± 2.82	65.5 ± 4.74	
		CC1=NN(c2ccccc2)C(=O)C1 [EDA, edaravone, reference compound]	60.8 ± 7.4	71.5 ± 9.84	
		COc1ccc([C@H]2Oc3c(c(O)cc(O)c3[C@@H]3c4c(O)cc(O)cc4O[C@H](c4ccc(O)c(O)c4)[C@H]3O)C[C@@H]2O)cc1O [Compound 13d, (+)‐Catechin‐(4α,8)‐[4′‐O‐Methyl‐(+)‐Catechin]]	63 ± 6.27	69 ± 8.76	
pulled down	poor	C#CCN(Cc1ccc(C(=O)c2ccccc2)cc1)C(=O)COc1cc(O)c([C@@H]2c3c(O)cc(O)cc3O[C@H](c3ccc(O)c(O)c3)[C@H]2O)c2c1C[C@H](O)[C@@H](c1ccc(O)c(O)c1)O2 [Compound 2, N‐(4‐Benzoylbenzyl)‐2‐(((2R,2′R,3S,3′S,4S)‐2,2′‐bis(3,4‐dihydroxyphenyl)‐3,3′,5,7,7′‐pentahydroxy‐[4,8′‐bichroman]‐5′‐yl)oxy)‐N‐(prop‐2‐yn‐1‐yl)acetamide]			retained the neuroprotective activity of PB3
		Oc1ccc([C@H]2Oc3c(-c4cccnc4)c(O)cc(O)c3[C@@H](c3c(O)cc(O)c4c3O[C@H](c3ccc(O)c(O)c3)[C@@H](O)C4)[C@@H]2O)cc1O [Compound 6h, 8‐(Pyridin‐3‐yl)‐(+)‐Catechin‐(4α,8)‐(+)‐Catechin]	58.8 ± 7.12	75.3 ± 4.68	
		COc1cc([C@H]2Oc3c(c(O)cc(O)c3[C@@H]3c4c(O)cc(O)cc4O[C@H](c4ccc(O)c(O)c4)[C@H]3O)C[C@@H]2O)ccc1O [Compound 13c, (+)‐Catechin‐(4α,8)‐[3′‐O‐Methyl‐(+)‐Catechin]]	66.2 ± 10.6	66.1 ± 2.9	
		CC(=O)O[C@H]1[C@H](c2c(O)cc(O)c3c2O[C@H](c2ccc(O)c(O)c2)[C@@H](OC(C)=O)C3)c2c(O)cc(O)cc2O[C@@H]1c1ccc(O)c(O)c1 [Compound 8, 3‐O‐Acetyl‐(+)‐Catechin‐(4α,8)‐[3‐O‐Acetyl‐(+)‐Catechin]]	62 ± 5.58	69.3 ± 6.73	
		COc1ccc([C@H]2Oc3cc(O)cc(O)c3[C@@H](c3c(O)cc(O)c4c3O[C@H](c3ccc(O)c(O)c3)[C@@H](O)C4)[C@@H]2O)cc1O [Compound 13b, 4′‐O‐Methyl‐(+)‐Catechin‐(4α,8)‐(+)‐Catechin]	57.5 ± 7.11	70.54 ± 0.41	
		Cc1c(O)cc(O)c2c1O[C@H](c1ccc(O)c(O)c1)[C@@H](O)[C@@H]2c1c(O)cc(O)c2c1O[C@H](c1ccc(O)c(O)c1)[C@@H](O)C2 [Compound 6a, 8‐Methyl‐(+)‐Catechin‐(4α,8)‐(+)‐Catechin]	56.7 ± 2.22	70.2 ± 2.92	
		CC(C)Cc1c(O)cc(O)c2c1O[C@H](c1ccc(O)c(O)c1)[C@@H](O)[C@@H]2c1c(O)cc(O)c2c1O[C@H](c1ccc(O)c(O)c1)[C@@H](O)C2 [Compound 6e, 8‐Isobutyl‐(+)‐Catechin‐(4α,8)‐(+)‐Catechin]	58.5 ± 8.12	67 ± 2.7	
		COc1cc(OC)c2c(c1)O[C@H](c1ccc(OC)c(OC)c1)[C@@H](O)[C@@H]2c1c(OC)cc(OC)c2c1O[C@H](c1ccc(OC)c(OC)c1)[C@@H](O)C2 [Compound 9, 5,7,3′,4′‐Tetra‐O‐Methyl‐(+)‐Catechin‐(4α, 8)‐[5,7,3′,4′‐Tetra‐O‐Methyl‐(+)‐Catechin]]	52.6 ± 7.34	66.8 ± 1.89	
		Oc1ccc([C@H]2Oc3c(-c4ccccc4)c(O)cc(O)c3[C@@H](c3c(O)cc(O)c4c3O[C@H](c3ccc(O)c(O)c3)[C@@H](O)C4)[C@@H]2O)cc1O [Compound 6f, 8‐Phenyl‐(+)‐Catechin‐(4α,8)‐(+)‐Catechin]	59.7 ± 7.43	70.4 ± 7.72	
		Oc1ccc([C@H]2Oc3c(-c4ccncc4)c(O)cc(O)c3[C@@H](c3c(O)cc(O)c4c3O[C@H](c3ccc(O)c(O)c3)[C@@H](O)C4)[C@@H]2O)cc1O [Compound 6g, 8‐(Pyridin‐4‐yl)‐(+)‐Catechin‐(4α,8)‐(+)‐Catechin]	55.9 ± 8.56	71.4 ± 1.74	
